“Also recorded” adds a separate entry of the source. Where a SMILES comes first, the peptide text is derived from it.
Legend:
human glioma U251 cells = assay: SRB antiproliferative assay, U251 glioma cells; format: cell-based; settings: for Selectivity index (CC50/IC50), U251: CC50 in HA / IC50 in U251; for IC50: Homo sapiens, U-251, SRB assay, mean ± s.d., n = 3
Description: (§1) Doxorubicin (DOX, a chemotherapeutic drug) was used as a positive control.
(§2) Sulforhodamine B (SRB) assay as described in previous studies[19],[20] was used to determine the activity of tested compounds inhibiting the proliferation of glioma U87MG, U251, SHG44 cells, and normal human astrocytes (HA). Doxorubicin (DOX) was used as a positive control (CON).

human glioma U87MG cells = assay: SRB antiproliferative assay, U87MG glioma cells; format: cell-based; settings: for Selectivity index (CC50/IC50), U87MG: CC50 in HA / IC50 in U87MG; for IC50: Homo sapiens, U-87 MG, SRB assay, mean ± s.d., n = 3
Description: as §1
The procedure of the preparation of crude extract for bioactive assay was described in the previous publication. The crude extract was made to a concentration of 1.0 mg/mL. Sulforhodamine B (SRB) assay was used to evaluate the activity of the crude extract against the proliferation of glioma U87MG cells.
as §2

human glioma SHG44 cells = assay: SRB antiproliferative assay, SHG44 glioma cells; format: cell-based; settings: for Selectivity index (CC50/IC50), SHG44: CC50 in HA / IC50 in SHG44; for IC50: Homo sapiens, SHG-44, SRB assay, mean ± s.d., n = 3
Description: as §1, §2

[1] = SRB cytotoxicity assay, normal human astrocytes; format: cell-based; settings: normal human astrocytes (HA), mean ± s.d., n = 3
Description: as §1, §2

[2] = system: human glioma U87MG, U251 and SHG44 cells; assay: SRB antiproliferative assay, results summarised over the glioma cell lines; format: cell-based; settings: for IC50: Homo sapiens, Glioma cell, range over U87MG, read-out: IC50 values against different glioma cells (range); for Activity in inhibiting the proliferation of glioma cells: U87MG
Description: as §1, §2

HK2 = assay: Western blot, HK2 expression in U87MG cells; format: cell-based, human; settings: 48 h, 1 at 30 μM, 2 at 60 μM, western blot vs blank control
Description: (§3) The active compounds 1 and 2 were further assayed for their effects on the expression levels of important tumor glycolytic enzymes (regulators) of HK2, PFKFB3, PKM2, and LDH5. […] Therefore, the effects of 1 and 2 on the expressions of these regulators in U87MG cells were evaluated. 2-Deoxyglucose (2-DG, a hexokinase inhibitor)[8], was used as a positive control. The U87MG cells were treated by 1 (30.0 μM), 2 (60.0 μM), or 2-DG (6.0 mM) for 48 h. Protein prepared from the compound-treated U87MG cells was subjected to western blot analysis. […] The full-length blots of Fig. 5 were provided as supplementary information (Fig. S61).
(§4) Figure 5 The expression levels of HK2, PFKFB3, PKM2, and LDH5 in glioma U87MG cells. U87-MG cells were treated with compounds 1 (30 μM), 2 (60 μM), or 2-DG (6.0 mM) for 48 h. Protein extracted from the compound-treated cells was subjected to western blot analysis.
(§5) Western blot analysis was used to detect the expression levels of tumor glycolytic regulators HK2, PFKFB3, PKM2, and LDH5. The detailed procedure, including protein sample preparation, determination of protein concentration, and western blot analysis, was described in the previous publication.

PFKFB3 = assay: Western blot, PFKFB3 expression in U87MG cells; format: cell-based, human; settings: 48 h, 1 at 30 μM, 2 at 60 μM, western blot vs blank control
Description: as §3, §4, §5

PKM2 = assay: Western blot, PKM2 expression in U87MG cells; format: cell-based, human; settings: 48 h, 1 at 30 μM, 2 at 60 μM, western blot vs blank control
Description: as §3, §4, §5

LDH5 = assay: Western blot, LDH5 expression in U87MG cells; format: cell-based, human; settings: 48 h, 1 at 30 μM, 2 at 60 μM, western blot vs blank control
Description: as §3, §4, §5

[3] = Stability in human liver microsomes; format: in vitro ADME; settings: 37 °C; for Percentage compared to the zero time point: human liver microsomes; on Percentage compared to the zero time point: tested at 12.5 µg/mL
Description: Therefore, it is interesting to understand the stability of compound 1 in human liver microsomes. Human liver microsomes were incubated with compound 1 at 37 °C in a water bath and the concentration of 1 at designed time points of 0, 15, 30, 60, 90, 120, 180, 240, and 360 min was determined by HPLC analysis. The results (Table 2 and Fig. 6) indicated the concentration of 1 had no change after the incubation of 30 min. The percentage of 1 was 98.4% (30 min), 70.2% (60 min), 65.3% (90 min), 54.8% (120 min), 35.5% (180 min), 28.2 (240 min), and 19.4% (360 min) when compared to 100.0% (0 min). The data indicated 1 was very stable in human liver microsomes in the first 30 min incubation with concentration gradually decreasing after the incubation of 30 min.
Compound 1 was dissolved in 100 mM NaPO4 solution (pH 7.4) to make a sample solution with a final concentration of 125 μg/mL. Human liver microsomes were diluted by 100 mM NaPO4 solution (pH 7.4) to make liver microsomal solution with a concentration of 1.25 mg/mL. A mixture of the sample solution (90 μL) and the liver microsomal solution (720 μL) was mixed well and then pre-incubated at 37 °C for 7 min. The pre-incubated mixture was initiated by adding 90 μL 10 mM NADPH solution, mixed well, and then incubated at 37 °C in a water bath. At each designed time point of 0, 15, 30, 60, 90, 120, 180, 240 and 360 min, aliquot 80 μL of the incubated mixture was pipette by micropipet and then quenched by the addition of 320 μL methanol. The reaction mixture was centrifuged at 12000 rpm for 10 min at 5 °C to give the supernatant, which was submitted to HPLC analysis.

[4] = system: human glioma U87MG, U251 and SHG44 cells; set-up: method as in PMID 28049552; settings: cited from earlier work
glioma = system: glioma; set-up: method as in PMID 20128807, PMID 15747063, PMID 29056497; settings: cited from earlier work

## O=C(O)c1cc(CO)c2c(c1)C(=O)c1cccc(O)c1C2=O [Compound 1, 1-hydroxymethyl-8-hydroxy-anthraquinone-3-carboxylic acid]
Human glioma U251 cells
  Selectivity index (CC50/IC50), U251: > 17.5
  IC50: 5.7 ± 0.3 µM
Human glioma U87MG cells
  Selectivity index (CC50/IC50), U87MG: > 21.3
  IC50: 4.7 ± 0.2 µM
Human glioma SHG44 cells
  Selectivity index (CC50/IC50), SHG44: > 12.3
  IC50: 8.1 ± 0.4 µM
[1]
  CC50: > 100 µM
[2]
  IC50: 4.7 to 8.1 µM
HK2
  Expression level of HK2: clearly reduced; also recorded: remarkably reduced
PFKFB3
  Expression level of PFKFB3: clearly reduced; also recorded: remarkably reduced
PKM2
  Expression level of PKM2: clearly reduced; also recorded: remarkably reduced
LDH5
  Expression level of LDH5: clearly reduced; also recorded: remarkably reduced
[3]
  Stability in human liver microsomes: good stability
[3]; 0 min
  Concentration in human liver microsomes: 12.4 µg/mL
  Percentage compared to the zero time point: 100.0%
[3]; 15 min
  Concentration in human liver microsomes: 12.0 µg/mL
  Percentage compared to the zero time point: 96.8%
[3]; 30 min
  Concentration in human liver microsomes: 12.2 µg/mL
  Percentage compared to the zero time point: 98.4%
[3]; 60 min
  Concentration in human liver microsomes: 8.7 µg/mL
  Percentage compared to the zero time point: 70.2%
[3]; 90 min
  Concentration in human liver microsomes: 8.1 µg/mL
  Percentage compared to the zero time point: 65.3%
[3]; 120 min
  Concentration in human liver microsomes: 6.8 µg/mL
  Percentage compared to the zero time point: 54.8%
[3]; 180 min
  Concentration in human liver microsomes: 4.4 µg/mL
  Percentage compared to the zero time point: 35.5%
[3]; 240 min
  Concentration in human liver microsomes: 3.5 µg/mL
  Percentage compared to the zero time point: 28.2%
[3]; 360 min
  Concentration in human liver microsomes: 2.4 µg/mL
  Percentage compared to the zero time point: 19.4%
[3]; first 30 min incubation
  Stability in human liver microsomes, first 30 min: very stable

## Cc1cc(=O)c2c(CC(=O)C[C@@H](O)CC(=O)O)cccc2o1 [Compound 2, 5-(2′-oxo-4′R-hydroxy-hexanoic acid)-2-methyl-chromone]
Human glioma U251 cells
  Selectivity index (CC50/IC50), U251: > 4.6
  IC50: 21.6 ± 1.7 µM
Human glioma U87MG cells
  Selectivity index (CC50/IC50), U87MG: > 3.8
  IC50: 25.7 ± 2.4 µM
Human glioma SHG44 cells
  Selectivity index (CC50/IC50), SHG44: > 3.8
  IC50: 25.8 ± 3.1 µM
[1]
  CC50: > 100 µM
[2]
  IC50: 21.6 to 25.8 µM
HK2
  Expression level of HK2: clearly reduced; also recorded: remarkably reduced
PFKFB3
  Expression level of PFKFB3: clearly reduced; also recorded: remarkably reduced
PKM2
  Expression level of PKM2: clearly reduced; also recorded: remarkably reduced
LDH5
  Expression level of LDH5: clearly reduced; also recorded: remarkably reduced

## CC(=O)N[C@@H](CC(C)C)C(=O)N[C@@H](CO)C(=O)N[C@@H](C)C(=O)O [Compound 3, N-acetyl-L-leucine-L-serine-L-alanine] (Ac-Leu-Ser-Ala-OH)
[2]
  Activity in inhibiting the proliferation of glioma cells: inactive

## CC(=O)N1CC(C(=O)O)CN1C(=O)C(C)C (stereo not drawn) [Compound 4, 1-acetyl-2-isobutyrylpyrazolidine-4-carboxylic acid]
[2]
  Activity in inhibiting the proliferation of glioma cells: inactive

## Cc1cc(O)c2c(c1)C(=O)c1cccc(O)c1C2=O [Compound 5, chrysophanol]
Human glioma U251 cells
  IC50: 1.2 ± 0.1 µM
Human glioma U87MG cells
  IC50: 0.5 ± 0.1 µM
Human glioma SHG44 cells
  IC50: 3 ± 0.2 µM
[2]
  IC50: 0.5 to 3 µM

## Cc1c(C(=O)O)c(O)cc2c1C(=O)c1c(O)cccc1C2=O [Compound 6, 3,8-dihydroxy-1-methyl-anthraquinone-2-carboxylic acid]
Human glioma U251 cells
  IC50: 13 ± 0.6 µM
Human glioma U87MG cells
  IC50: 10.4 ± 0.5 µM
Human glioma SHG44 cells
  IC50: 36.3 ± 0.2 µM
[2]
  IC50: 10.4 to 36.3 µM

## CC(C)[C@@H]1NC(=O)[C@H](C)OC(=O)[C@@H](C(C)C)NC(=O)[C@@H](C(C)C)OC(=O)[C@H](C(C)C)NC(=O)[C@H](C)OC(=O)[C@@H](C(C)C)NC(=O)[C@@H](C(C)C)OC(=O)[C@H](C(C)C)NC(=O)[C@H](C)OC(=O)[C@@H](C(C)C)NC(=O)[C@@H](C(C)C)OC1=O [Compound 11, valinomycin]
[4]
  Activity in inhibiting the proliferation of different glioma cells: showed activity

## COc1cccc2c1C(=O)c1c(O)c3c(c(O)c1C2=O)C[C@@](O)(C(=O)CO)C[C@@H]3O[C@H]1C[C@H](N)[C@H](O)[C@H](C)O1 [DOX, Doxorubicin, reference compound]
Human glioma U251 cells
  Selectivity index (CC50/IC50), U251: 0.9
  IC50: 9.6 ± 1.3 µM
Human glioma U87MG cells
  Selectivity index (CC50/IC50), U87MG: 4.6
  IC50: 1.9 ± 0.4 µM
Human glioma SHG44 cells
  Selectivity index (CC50/IC50), SHG44: 3.5
  IC50: 2.5 ± 1.1 µM
[1]
  CC50: 8.7 ± 1.2 µM
[2]
  IC50: 1.9 to 9.6 µM

## O=C1c2cccc(O)c2C(=O)c2c(O)cc(CO)cc21 [aloe emodin]
glioma
  Activity against glioma: reported to have activity against glioma

## O=C(O)c1cc(O)c2c(c1)C(=O)c1cccc(O)c1C2=O [rhein]
glioma
  Activity against glioma: reported to have activity against glioma

## SZ-685C
glioma
  Activity against glioma: reported to have activity against glioma

From publication PMC5758648, “Anti-glioma Natural Products Downregulating Tumor Glycolytic Enzymes from Marine Actinomycete Streptomyces sp. ZZ406” (Scientific Reports, 2018)
